Measured values: patent US9868738B2, “Diazine-fused amidines as BACE inhibitors, compositions, and their use” (Merck Sharp & Dohme Corp., priority 2014, dated 2018)

Columns and labels:
[1] = biological target: soluble human BACE1 catalytic domain (Homo sapiens (Human), UniProt P56817); assay: BACE-1 Ki Assay (BACE-1 HTRF FRET Assay); assay type: biochemical; conditions: Ki calculated from IC50 using the Cheng-Prusoff equation; QSY7-APPswe-Eu substrate 200 nM, pH 5.0
Protocol: In another embodiment, the compounds of the invention comprise the example compounds shown in the table below, or a tautomer thereof, or a pharmaceutically acceptable salt of said compound or said tautomer. Examples 2 to 42 were prepared using the method similar to Ex. 1. Example 44 to 51 were synthesized using the method similar to Ex. 43. BACE-1 values reported in this table were measured using BACE-1 Ki Assay (BACE-1 HTRF FRET Assay).
• Reagents: Na^+-Acetate pH 5.0; 1% Brij-35; Glycerol; Dimethyl Sulfoxide (DMSO); Recombinant human soluble BACE1 catalytic domain (>95% pure); APP Swedish mutant peptide substrate (QSY7-APP^swe-Eu): QSY7-EISEVNLDAEFC-Europium-amide.
A homogeneous time-resolved FRET assay can be used to determine IC50 values for inhibitors of the soluble human BACE1 catalytic domain. This assay monitors the increase of 620 nm fluorescence that resulted from BACE1 cleavage of an APPswedish APP^swe mutant peptide FRET substrate (QSY7-EISEVNLDAEFC-Europium-amide). This substrate contains an N-terminal QSY7 moiety that serves as a quencher of the C-terminal Europium fluorophore (620 nm Em). In the absence of enzyme activity, 620 nm fluorescence is low in the assay and increased linearly over 3 hours in the presence of uninhibited BACE1 enzyme. Inhibition of BACE1 cleavage of the QSY7-APP^swe-Eu substrate by inhibitors is manifested as a suppression of 620 nm fluorescence.
Varying concentrations of inhibitors at 3× the final desired concentration in a volume of 10 ul are preincubated with purified human BACE1 catalytic domain (3 nM in 10 μl) for 30 minutes at 30° C. in reaction buffer containing 20 mM Na-Acetate pH 5.0, 10% glycerol, 0.1% Brij-35 and 7.5% DSMO. Reactions are initiated by addition of 10 μl of 600 nM QSY7-APP^swe-Eu substrate (200 nM final) to give a final reaction volume of 30 μl in a 384 well Nunc HTRF plate. The reactions are incubated at 30° C. for 1.5 hours. The 620 nm fluorescence is then read on a Rubystar HTRF plate reader (BMG Labtechnologies) using a 50 millisecond delay followed by a 400 millisecond acquisition time window. Inhibitor IC50 values are derived from non-linear regression analysis of concentration response curves. Ki values are then calculated from IC50 values using the Cheng-Prusoff equation using a previously determined […] of 8 μM for the QSY7-APP^swe-Eu substrate at BACE1.

[2] = biological target: purified human autoBACE-2 (Homo sapiens (Human), UniProt Q9Y5Z0); assay: BACE-2 Assay (BACE-HTRF assay); assay type: biochemical; conditions: Ki calculated from IC50 using the Cheng-Prusoff equation; QSY7-EISEVNLDAEFC-Eu-amide substrate 200 nM, pH 5.0
Chain of purified human autoBACE-2 (Q9Y5Z0 63-473 limits assumed): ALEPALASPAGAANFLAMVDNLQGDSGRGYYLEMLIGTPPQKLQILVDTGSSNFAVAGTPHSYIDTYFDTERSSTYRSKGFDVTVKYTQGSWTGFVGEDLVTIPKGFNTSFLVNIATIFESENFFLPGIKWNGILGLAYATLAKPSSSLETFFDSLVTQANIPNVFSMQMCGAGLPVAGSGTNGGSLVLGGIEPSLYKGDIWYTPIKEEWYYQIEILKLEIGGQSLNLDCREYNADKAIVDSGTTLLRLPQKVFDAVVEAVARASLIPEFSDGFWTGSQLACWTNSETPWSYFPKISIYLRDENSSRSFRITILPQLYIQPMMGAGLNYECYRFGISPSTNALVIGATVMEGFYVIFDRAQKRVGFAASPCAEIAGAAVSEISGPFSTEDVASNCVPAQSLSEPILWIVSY
Protocol: Inhibitor IC50s at purified human autoBACE-2 are determined in a time-resolved endpoint proteolysis assay that measures hydrolysis of the QSY7-EISEVNLDAEFC-Eu-amide FRET peptide substrate (BACE-HTRF assay). BACE-mediated hydrolysis of this peptide results in an increase in relative fluorescence (RFU) at 620 nm after excitation with 320 nm light. Inhibitor compounds, prepared at 3× the desired final concentration in 1×BACE assay buffer (20 mM sodium acetate pH 5.0, 10% glycerol, 0.1% Brij-35) supplemented with 7.5% DMSO are pre-incubated with an equal volume of autoBACE-2 enzyme diluted in 1×BACE assay buffer (final enzyme concentration 1 nM) in black 384-well NUNC plates for 30 minutes at 30° C. […] DMSO is present at […] final concentration in the assay. Following laser excitation of sample wells at 320 nm, the fluorescence signal at 620 nm is collected for 400 ms following a 50 μs delay on a RUBYstar HTRF plate reader (BMG Labtechnologies). Raw RFU data is normalized to maximum (1.0 nM BACE/DMSO) and minimum (no enzyme/DMSO) RFU values. IC50s are determined by nonlinear regression analysis (sigmoidal dose response, variable slope) of percent inhibition data with minimum and maximum values set to 0 and 100 percent respectively. Similar IC50s are obtained when using raw RFU data. The Ki values are calculated from the IC50 using the Cheng-Prusoff equation.

Chain of soluble human BACE1 catalytic domain (P56817 75-416): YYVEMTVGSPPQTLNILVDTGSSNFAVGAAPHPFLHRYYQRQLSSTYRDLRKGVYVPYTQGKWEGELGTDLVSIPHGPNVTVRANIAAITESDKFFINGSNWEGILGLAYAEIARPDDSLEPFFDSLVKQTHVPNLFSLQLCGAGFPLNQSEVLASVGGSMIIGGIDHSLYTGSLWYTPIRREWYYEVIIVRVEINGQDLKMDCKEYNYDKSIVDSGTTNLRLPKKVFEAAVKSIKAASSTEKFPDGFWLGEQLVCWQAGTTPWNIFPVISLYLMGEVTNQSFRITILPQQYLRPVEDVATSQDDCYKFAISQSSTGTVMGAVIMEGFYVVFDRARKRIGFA

Compound	Ki [1] [nM]	Ki [2] [nM]
C[C@@]1(c2cc(-c3cccc(C#N)c3)ccc2F)Cc2ncncc2C(=N)N1 [Example 11, 4′-fluoro-3′-[(7S)-5-imino-7-methyl-5,6,7,8-tetrahydropyrido[4,3-d]pyrimidin-7-yl]biphenyl-3-carbonitrile]	827	259
C[C@@]1(c2cc(-c3cccnc3)ccc2F)Cc2ncncc2C(=N)N1 [Example 10, (7S)-7-(2-fluoro-5-pyridin-3-ylphenyl)-7-methyl-7,8-dihydropyrido[4,3-d]pyrimidin-5(6H)-imine]	746	1180
C[C@@]1(c2cc(-c3cccc(-c4nnco4)c3)cs2)Cc2nc(C3CC3)ncc2C(=N)N1 [Example 34, (7S)-2-cyclopropyl-7-methyl-7-{4-[3-(1,3,4-oxadiazol-2-yl)phenyl]thiophen-2-yl}-7,8-dihydropyrido[4,3-d]pyrimidin-5(6H)-imine]	85	215
Cc1ncc2c(n1)C[C@@](C)(c1sc(-c3cccc(-c4ncno4)c3)cc1Cl)NC2=N [Example 29, (7S)-7-{3-chloro-5-[3-(1,2,4-oxadiazol-5-yl)phenyl]thiophen-2-yl}-2,7-dimethyl-7,8-dihydropyrido[4,3-d]pyrimidin-5(6H)-imine]	482	79.7
COc1cccc2cc(-c3csc([C@]4(C)Cc5nc(C6CC6)ncc5C(=N)N4)c3)[nH]c12 [Example 33, (7S)-2-cyclopropyl-7-[4-(7-methoxy-1H-indo1-2-yl)thiophen-2-yl]-7-methyl-7,8-dihydropyrido[4,3-d]pyrimidin-5(6H)-imine]	38.2	4.8
Cc1ncc2c(n1)C[C@@](C)(c1sc(-c3cc(F)cc(-c4nnco4)c3)cc1Cl)NC2=N [Example 28, (7S)-7-{3-chloro-5-[3-fluoro-5-(1,3,4-oxadiazol-2-yl)phenyl]thiophen-2-yl}-2,7-dimethyl-7,8-dihydropyrido[4,3-d]pyrimidin-5(6H)-imine]	16.6	24.4
C[C@@]1(c2cc(NC(=O)c3ccc(F)cn3)ccc2F)Cc2ncncc2C(=N)N1 [Example 43, 5-fluoro-N-{4-fluoro-3-[(7S)-5-imino-7-methyl-5,6,7,8-tetrahydropyrido[4,3-d]pyrimidin-7-yl]phenyl}pyridine-2-carboxamide]	9.4	3
Cc1ncc2c(n1)C[C@@](C)(c1sc(-c3cccc(-c4nnco4)c3)cc1Cl)NC2=N [Example 26, (7S)-7-{3-chloro-5-[3-(1,3,4-oxadiazol-2-yl)phenyl]thiophen-2-yl}-2,7-dimethyl-7,8-dihydropyrido[4,3-d]pyrimidin-5(6H)-imine]	10.6	29.1
Cc1ncc2c(n1)C[C@](c1cc(NC(=O)c3ccc(C#N)cn3)ccc1F)(C(F)F)NC2=N [Example 50, 5-cyano-N-{3-[(7S)-7-(difluoromethyl)-5-imino-2-methyl-5,6,7,8-tetrahydropyrido[4,3-d]pyrimidin-7-yl]-4-fluorophenyl}pyridine-2-carboxamide]	7.1	10.9
C[C@@]1(c2cc(-c3cncc(Cl)c3)ccc2F)Cc2ncncc2C(=N)N1 [Example 4, (7S)-7-[5-(5-chloropyridin-3-yl)-2-fluoro-phenyl]-7-methyl-7,8-dihydropyrido[4,3-d]pyrimidin-5(6H)-imine]	253	130
COc1cccc2cc(-c3csc([C@]4(C)Cc5nc(C(F)(F)F)ncc5C(=N)N4)c3)[nH]c12 [Example 39, (7S)-7-[4-(7-methoxy-1H-indo1-2-yl)thiophen-2-yl]-7-methyl-2-(trifluoromethyl)-7,8-dihydropyrido[4,3-d]pyrimidin-5(6H)-imine]	28.9	1.5
C[C@@]1(c2sc(-c3cncc(C#N)c3)cc2Cl)Cc2ncncc2C(=N)N1 [Example 14, 5-{4-chloro-5-[(7S)-5-imino-7-methyl-5,6,7,8-tetrahydropyrido[4,3-d]pyrimidin-7-yl]thiophen-2-yl}pyridine-3-carbonitrile]	75.2	31.6
